Measured values published in US12128131B2, “Treatment of epithelial cysts by intracystic injection of antineoplastic particles” (CRITITECH, INC., priority 2017, dated 2024).

Test: Solubility in the Receptor Fluid (60/40 methanol/water, pH 4)
Format: physicochemical
Conditions: 60 vol. %/40 vol % methanol/water at pH 4 with 0.01 wt % NaN3
Experimental: Receptor Fluid: The receptor fluid consisted of 60 vol. %/40 vol % methanol/water at pH 4 with 0.01 wt % NaN3 (added as a preservative). […] After mixing and degassing the Receptor Fluid it was filtered through a ZapCap CR 0.2 μm membrane under vacuum; the Receptor Fluid, so filtered, was stirred for an additional 20 minutes under vacuum.

solubility in the Receptor Fluid: sufficient to maintain sink conditions
Structure (SMILES): CC(=O)O[C@@]12CO[C@@H]1C[C@H](O)[C@@]1(C)C(=O)[C@H](O)C3=C(C)[C@@H](OC(=O)[C@H](O)[C@@H](NC(=O)OC(C)(C)C)c4ccccc4)C[C@@](O)([C@@H](OC(=O)c4ccccc4)[C@H]21)C3(C)C [Docetaxel Raw Material, docetaxel]
